Laboratory results reported in patent US6589564B2, “Use of magnesium based products for the treatment of neoplastic diseases” (priority 1994, dated 2003).
Where two headings read alike, the source gives them in different places.

What was measured:
ulcerative colitis = test system: ulcerative colitis
Protocol: The treatment comprised the parenteral administration of 6 g of magnesium pyrophosphate (489 mg of Mg^++, i.e., 8.89 mg of Mg^++/kg body weight daily), diluted into 500 cm^3 of physiologic solution, and the infusion was adjusted to supply the patient with 80 mg of Mg^++ per hour for 6 hours. […] of orally administered vitamin B6 were added in divided doses, to improve the magnesium uptake.

rheumatoid arthritis = settings: for ESR: before therapy 55, normal range 1-15
Protocol: The magnesium therapy, that the patient started in a disease remission interval, consisted of daily administations of 6 g of magnesium pyrophosphate (equivalent to 489 mg of Mg^++, corresponding to 8.1 mg of Mg^++/kg body weight daily), by infusion in 500 cm^3 of physiologic solution. The infusion rate was adjusted to supply 80 mg of Mg^++ per hour for about 6 hours. Vitamin B6 was associated with magnesium in the 2.5:1 ratio, i.e. in an amount of 1200 mg daily in divided doses, in order to improve the magnesium uptake. Suitable analgesic and anti-inflammatory drugs (FANS) were prescribed to soothe the articulation pains
At this point the parenteral treatment was suspended and an oral therapy started with following dosage: 6 g of magnesium pyrophosphate daily in divided doses (i.e., 488 mg of Mg^++ daily, corresponding to 8.1 mg of Mg^++/kg body weight daily), as well as […] of vitamin B6 orally, also in divided doses.

pemphigus vulgaris = test system: pemphigus vulgaris
Protocol: A patient was affected since three years by a pemphigus vulgaris, that caused soft vesicles to form on the patient's face and scalp. The vesicles broke after forming, and gave rise to circular erosions, that later were covered by scabs. Then, the said lesions appeared also on the patient's trunk and oral mucosa.
The therapy consisted in daily administering 9 g of magnesium pyrophosphate (i.e., 733 mg of Mg^++, corresponding to 9.16 mg/kg body weight daily of magnesium ions), dissolved into 500 cm^3 of a physiologic solution. The infusion rate was adjusted to supply 80 mg of Mg^++ per hour for about 9 hours.
Moreover, 1800 mg of vitamin B6 were administered daily, in divided doses.

[1] = test system: infiltrating ulcerated adenocarcinoma (rectum)
Protocol: The patient refused any therapy for a month and then started a magnesium treatment consisting of a daily administration of 500 cm^3 of physiologic solution, containing 6 g of magnesium pyrophosphate (i.e., 489 mg of Mg^++ daily, that is equivalent to about 9.7 mg of Mg^++/kg body weight daily). The infusion rate was adjusted to supply the patient with 80 mg of magnesium ions per hour for about 6 hours. Furthermore, a daily amount of 1200 mg of vitamin B6 was associated (vitamin B6:Mg^++=2.5:1), in four separate administrations.
After one month of intravenous treatment, the therapy was continued orally, with 6 g of magnesium pyrophosphate daily (i.e., 488 mg of Mg^++ daily, corresponding to 9.7 mg of Mg^++/kg body weight daily), associated with […] of vitamin B6 in divided doses.

[2] = after one further month (three months)
[3] = end of fourth month, negative normally, before therapy positive

## O=P([O-])([O-])OP(=O)([O-])[O-].[Mg+2].[Mg+2] [magnesium pyrophosphate]
Ulcerative colitis; [2]
  colonscopy, last 50 cm of the colon mucosa: appeared normal
  histology test of colon mucosa and submucosa: colon mucosa and submucosa were normal and any inflammatory infiltration had disappeared
Ulcerative colitis; after one further month (three months), same dosage
  abdominal pains and diarrhoea: no more abdominal pains nor diarrhoea
Ulcerative colitis; end of two month treatment
  colonscopy, last 50 cm of the colon mucosa: neither hyperaemic nor bleeding; and absence of microulcerative lesions
  diarrhoea, daily episodes: two
  histology test of colon mucosa: still showed the presence of inflammatory neutrophil infiltration in the colon mucosa
Ulcerative colitis; end of two month treatment, 6 g/day parenteral with oral vitamin B6
  abdominal pains: no abdominal pains
Rheumatoid arthritis; end of first month, 6 g/day by infusion with vitamin B6
  ESR: 42
Rheumatoid arthritis; end of first month, 6 g/day by infusion with vitamin B6 and FANS
  articulation pains and swelling: less pains at affected articulations, which appeared less swollen
Rheumatoid arthritis; end of fourth month of treatment (1 month i.v., then oral 6 g/day)
  articulation tumescence, pains, morning rigidity: any articulation tumescence had disappeared and the patient referred neither articulation pains nor morning articulation rigidity
Rheumatoid arthritis; [3]
  ANA antibody research: negative
  Waaler-Rose's reaction: negative
Rheumatoid arthritis; end of fourth month, normal range 0-6, before therapy 15
  reactive C protein: 2
Rheumatoid arthritis; end of fourth month, normal range 0-40, before therapy 105
  rheuma test: 21
Rheumatoid arthritis; end of fourth month
  ESR: 10
Rheumatoid arthritis; end of fourth month, normal range 123-370, before therapy 550
  fibrinogen: 232
Pemphigus vulgaris; after one month, 9 g/day by infusion with vitamin B6
  articular pains and cutaneous lesions: less articular pains and cutaneous lesions onto non-erythematous skin
Pemphigus vulgaris; end of fourth month (1 month i.v., then oral 9 g/day with vitamin B6)
  scab lesions and articulation pains: the trunk and limb scab lesions had disappeared, while scarce lesions were still present on the scalp
Pemphigus vulgaris; end of sixth month of treatment
  articulation pains and skin lesions: the articulation pains had disappeared at all, as well as any skin lesions
[1]; end of fifth month of treatment
  tumor area at rectoscopy and tomography: totally disappeared
[1]; end of fourth month of therapy
  tumor area: further reduced
[1]; end of third month of magnesium therapy, point at 3 o'clock
  diameter of residual tumor area: 1.5 cm
[1]; end of third month, 6 g/day, 1 month i.v. then oral, with vitamin B6 1200 mg/day
  tumoral tissue at rectum investigation and rectoscopy: had disappeared from the whole rectum circumference, except from a point at 3 o'clock
